Assays:
[1] = biological target: indoleamine 2, 3-dioxygenase (IDO1) (Homo sapiens, UniProt P14902); assay: IDO1 HeLa RapidFire MS assay (kynurenine detection by mass spectrometry); type: cell-based; design: to induce the expression of indoleamine 2, 3-dioxygenase (IDO1); conditions: HeLa cells, pIC50, read-out: IDO1_HELA_PXC50 (converted)
Procedure: IDO1 HeLa RapidFire MS Assay
(§1) Compounds of the present invention were tested via high-throughput cellular assays utilizing detection of kynurenine via mass spectrometry and cytotoxicity as end-points. For the mass spectrometry and cytotoxicity assays, human epithelial HeLa cells (CCL-2; ATCC®, Manassas, Va.) were stimulated with human interferon-γ (IFN-γ) (Sigma-Aldrich Corporation, St. Louis, Mo.) to induce the expression of indoleamine 2, 3-dioxygenase (IDO1). Compounds with IDO1 inhibitory properties decreased the amount of kynurenine produced by the cells via the tryptophan catabolic pathway. Cellular toxicity due to the effect of compound treatment was measured using CellTiter-Glo® reagent (CTG) (Promega Corporation, Madison, Wis.), which is based on luminescent detection of ATP, an indicator of metabolically active cells.
(§2) In preparation for the assays, test compounds were serially diluted 3-fold in DMSO from a typical top concentration of 1 mM or 5 mM and plated at 0.5 μL in 384-well, polystyrene, clear bottom, tissue culture treated plates with lids (Greiner Bio-One, Kremsmünster, Austria) to generate 11-point dose response curves. Low control wells (0% kynurenine or 100% cytotoxicity) contained either 0.5 μL of DMSO in the presence of unstimulated (−IFN-γ) HeLa cells for the mass spectrometry assay or 0.5 μL of DMSO in the absence of cells for the cytotoxicity assay, and high control wells (100% kynurenine or 0% cytotoxicity) contained 0.5 μL of DMSO in the presence of stimulated (+IFN-γ) HeLa cells for both the mass spectrometry and cytotoxicity assays.
(§3) Frozen stocks of HeLa cells were washed and recovered in DMEM high glucose medium with HEPES (Thermo Fisher Scientific, Inc., Waltham, Mass.) supplemented with 10% v/v certified fetal bovine serum (FBS) (Thermo Fisher Scientific, Inc., Waltham, Mass.), and 1× penicillin-streptomycin antibiotic solution (Thermo Fisher Scientific, Inc., Waltham, Mass.). The cells were diluted to 100,000 cells/mL in the supplemented DMEM medium. 50 μL of either the cell suspension, for the mass spectrometry assay, or medium alone, for the cytotoxicity assay, were added to the low control wells, on the previously prepared 384-well compound plates, resulting in 5,000 cells/well or 0 cells/well respectively. IFN-γ was added to the remaining cell suspension at a final concentration of 10 nM, and 50 μL of the stimulated cells were added to all remaining wells on the 384-well compound plates. The plates, with lids, were then placed in a 37° C., 5% CO2 humidified incubator for 2 days.
(§4) Following incubation, the 384-well plates were removed from the incubator and allowed to equilibrate to room temperature for 30 minutes. For the cytotoxicity assay, CellTiter-Glo® was prepared according to the manufacturer's instructions, and 10 μL were added to each plate well. After a twenty minute incubation at room temperature, luminescence was read on an EnVision® Multilabel Reader (PerkinElmer Inc., Waltham, Mass.). For the mass spectrometry assay, 10 μL of supernatant from each well of the compound-treated plates were added to 40 μL of acetonitrile, containing 10 μM of an internal standard for normalization, in 384-well, polypropylene, V-bottom plates (Greiner Bio-One, Kremsmünster, Austria) to extract the organic analytes. Following centrifugation at 2000 rpm for 10 minutes, 10 μL from each well of the acetonitrile extraction plates were added to 90 μL of sterile, distilled H2O in 384-well, polypropylene, V-bottom plates for analysis of kynurenine and the internal standard on the RapidFire 300 (Agilent Technologies, Santa Clara, Calif.) and 4000 QTRAP MS (SCIEX, Framingham, Mass.). MS data were integrated using Agilent Technologies' RapidFire Integrator software, and data were normalized for analysis as a ratio of kynurenine to the internal standard. […]

[2] = system: human epithelial HeLa cells; assay: HeLa cytotoxicity assay (CellTiter-Glo); type: cell-based; conditions: pCC50
Procedure: as §1, §2, §3, §4

indoleamine 2, 3-dioxygenase (IDO1), sequence (P14902 whole entry): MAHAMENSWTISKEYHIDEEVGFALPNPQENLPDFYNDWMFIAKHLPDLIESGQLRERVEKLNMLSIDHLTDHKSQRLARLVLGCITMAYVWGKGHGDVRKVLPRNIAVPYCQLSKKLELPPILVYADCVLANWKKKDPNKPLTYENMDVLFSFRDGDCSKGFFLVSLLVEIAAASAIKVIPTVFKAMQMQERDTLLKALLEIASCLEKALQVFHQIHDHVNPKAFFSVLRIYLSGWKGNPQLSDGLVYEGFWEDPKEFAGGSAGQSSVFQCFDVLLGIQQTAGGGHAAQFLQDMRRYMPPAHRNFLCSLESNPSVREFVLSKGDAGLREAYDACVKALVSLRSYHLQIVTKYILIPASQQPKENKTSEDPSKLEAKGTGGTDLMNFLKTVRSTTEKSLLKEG

Row | Compound | IC50 [1] [µM] | HELA_IDO1_TOX_PXC50 [2]
1 | COc1ccnc(Nc2cc(C(C)CC(=O)O)ccc2N(CC(C)C)CC(C)C)n1.O=C(O)C(F)(F)F (stereo not drawn) [example 127, 3-{4-[bis(2-methylpropyl)amino]-3-[(4-methoxypyrimidin-2-yl)amino]phenyl}butanoic acid] | 2.51 | <4.3
2 | CC(C)CN(CC(C)C)c1ccc(C(C)CC(=O)O)cc1Nc1nc2c(s1)CCCC2 (stereo not drawn) [example 131, 3-{4-[bis(2-methylpropyl)amino]-3-[(4,5,6,7-tetrahydro-1,3-benzothiazol-2-yl)amino]phenyl}butanoic acid] | 0.631 | 4.7
3 | COc1nsc(Nc2cc(C(C)CC(=O)O)ccc2N(CC(C)C)CC(C)C)n1 (stereo not drawn) [example 132, 3-{4-[bis(2-methylpropyl)amino]-3-[(3-methoxy-1,2,4-thiadiazol-5-yl)amino]phenyl}butanoic acid] | 15.8 | <4.3
4 | CC(C)CN(CC(C)C)c1ccc(C(C)CC(=O)O)cc1Nc1nc(C(C)(C)C)cs1 (stereo not drawn) [example 133, 3-{4-[bis(2-methylpropyl)amino]-3-[(4-tert-butyl-1,3-thiazol-2-yl)amino]phenyl}butanoic acid] | 3.98 | 4.5
5 | CC(=O)N1CCC(Nc2cc(C(C)CC(=O)O)ccc2N(CC(C)C)C2CCCCC2)C1 (stereo not drawn) [example 135, 3-{3-[(1-acetylpyrrolidin-3-yl)amino]-4-[cyclohexyl(2-methylpropyl)amino]phenyl}butanoic acid] | 3.98 | <5
6 | CC(C)CN(CC(C)C)c1ccc(C(C)CC(=O)O)cc1Nc1nc(C2CCOCC2)cs1 (stereo not drawn) [example 138, 3-{4-[bis(2-methylpropyl)amino]-3-{[4-(oxan-4-yl)-1,3-thiazol-2-yl]amino}phenyl}butanoic acid] | 5.01 | <4.3
7 | CC(C)CN(c1ccc(C(C)CC(=O)O)cc1NC1CCN(C)CC1)C1CCCCC1 (stereo not drawn) [example 140, 3-{4-[cyclohexyl(2-methylpropyl)amino]-3-[(1-methylpiperidin-4-yl)amino]phenyl}butanoic acid] | 3.16 | <5
8 | CC(C)CN(CC(C)C)c1ccc(C(C)CC(=O)O)cc1Nc1nc(C2CC2)cs1 (stereo not drawn) [example 141, 3-{4-[bis(2-methylpropyl)amino]-3-[(4-cyclopropyl-1,3-thiazol-2-yl)amino]phenyl}butanoic acid] | 0.794 | <5
9 | CC(C)CN(CC(C)C)c1ccc(C(C)CC(=O)O)cc1Nc1ccsc1 (stereo not drawn) [example 143, 3-{4-[bis(2-methylpropyl)amino]-3-[(thiophen-3-yl)amino]phenyl}butanoic acid] | 0.316 | <5
10 | CC(C)CN(c1ccc(C(C)CC(=O)O)cc1NC1=N[C@H](c2ccccc2)CS1)C1CCCCC1 (stereo partly drawn) [example 148, 3-{4-[cyclohexyl(2-methypropyl)amino]-3-{[(4R)-4-phenyl-4,5-dihydro-1,3-thiazol-2-yl]amino}phenyl}butanoic acid] | 0.631 | <5
11 | CC(C)CN(c1ccc(-c2c[nH]nc2C(=O)O)cc1Nc1nc2ccccc2o1)C1CCCCC1 [example 175, 4-{3-[(1,3-benzoxazol-2-yl)amino]-4-[cyclohexyl(2-methylpropyl)amino]phenyl}-1H-pyrazole-3-carboxylic acid] | 5.01 | <5

The next lines start with results.

Row | IC50 [1] [µM] | Compound | HELA_IDO1_TOX_PXC50 [2]
12 | 2.51 | CC(C)CN(CC(C)C)c1ccc(C(C)CC(=O)O)cc1Nc1nc(-c2ccccc2)cs1 (stereo not drawn) [example 128, 3-{4-[bis(2-methylpropyl)amino]-3-[(4-phenyl-1,3-thiazol-2-yl)amino]phenyl}butanoic acid] | 4.4
13 | 1.58 | CC(C)CN(c1ccc(C(C)CC(=O)O)cc1NC1COC1)C1CCCCC1 (stereo not drawn) [example 129, 3-{4-[cyclohexyl(2-methylpropyl)amino]-3-[(oxetan-3-yl)amino]phenyl}butanoic acid] | <4.3
14 | 1.58 | CC(C)CN(CC(C)C)c1ccc(C(C)CC(=O)O)cc1Nc1nc(-c2ccncc2)cs1 (stereo not drawn) [example 130, 3-{4-[bis(2-methylpropyl)amino]-3-{[4-(pyridin-4-yl)-1,3-thiazol-2-yl]amino]phenyl}butanoic acid] | <4.3
15 | 3.16 | CC(C)CN(c1ccc(C(C)CC(=O)O)cc1NC1CCS(=O)(=O)CC1)C1CCCCC1 (stereo not drawn) [example 134, 3-{4-[cyclohexyl(2-methylpropyl)amino]-3-[(1,1-dioxo-1λ^6-thian-4-yl)amino]phenyl}butanoic acid] | <5
16 | 3.16 | CC(C)CN(c1ccc(C(C)CC(=O)O)cc1NC1CCNC1)C1CCCCC1 (stereo not drawn) [example 136, 3-{4-[cyclohexyl(2-methylpropyl)amino]-3-[(pyrrolidin-3-yl)amino]phenyl}butanoic acid] | 5.1
17 | 0.158 | CC(C)CN(CC(C)C)c1ccc(C(C)CC(=O)O)cc1Nc1ccccc1 (stereo not drawn) [example 142, 3-{4-[bis(2-methylpropyl)amino]-3-(phenylamino)phenyl} butanoic acid] | <5
18 | 3.16 | CC(C)CN(c1ccc(C(C)CC(=O)O)cc1NC1CCN(C)C1)C1CCCCC1 (stereo not drawn) [example 144, 3-{4-[cyclohexyl(2-methylpropyl)amino]-3-[(1-methylpyrrolidin-3-yl)amino]phenyl}butanoic acid] | <5
19 | 0.794 | CC(C)CN(c1ccc(C(C)CC(=O)O)cc1Nc1nc2ccccn2n1)C1CCCCC1 (stereo not drawn) [example 145, 3-{4-[cyclohexyl(2-methylpropyl)amino]-3-({[1,2,4]triazolo[1,5-a]pyridin-2-yl)amino)phenyl}butanoic acid] | <5
20 | > 10 | Cc1nc(Cc2ccccc2)c(Nc2cc(C(C)CC(=O)O)ccc2N(CC(C)C)CC(C)C)s1 (stereo not drawn) [example 146, 3-{3-[(4-benzyl-2-methyl-1,3-thiazol-5-yl)amino]-4-[bis(2-methylpropyl)amino]phenyl}butanoic acid] | <5
21 | > 10 | CC(C)CN(CC(C)C)c1ccc(C(C)CC(=O)O)cc1NCc1noc(C2CC2)n1 (stereo not drawn) [example 147, 3-{4-[bis(2-methylpropyl)amino]-3-{[(5-cyclopropyl-1,2,4-oxadiazol-3-yl)methyl]amino}phenyl} butanoic acid] | <5
22 | 0.794 | CC(C)CN(c1ccc(C(C)CC(=O)O)cc1NC1=N[C@@H](c2ccccc2)CS1)C1CCCCC1 (stereo partly drawn) [example 149, 3-{4-[cyclohexyl(2-methylpropyl)amino]-3-{[(4S)-4-phenyl-4,5-dihydro-1,3-thiazol-2-yl]amino}phenyl}butanoic acid] | <5
23 | 3.16 | CC(C)CN(c1ccc(C(C)CC(=O)O)cc1Nc1nc2n(n1)CCCC2)C1CCCCC1 (stereo not drawn) [example 150, 3-{4-[cyclohexyl(2-methylpropyl)amino]-3-({5H,6H,7H,8H-[1,2,4]triazolo[1,5-a]pyridin-2-yl}amino)phenyl}butanoic acid] | <5
24 | 3.16 | CC(C)CN(c1ccc(-c2cn(C)nc2C(=O)O)cc1Nc1nc2ccccc2o1)C1CCCCC1 [example 176, 4-{3-[(1,3-benzoxazol-2-yl)amino]-4-[cyclohexyl(2-methylpropyl)amino]phenyl}-1-methyl-1H-pyrazole-3-carboxylic acid] | <5

Reference: patent US10899754B2, “Modulators of indoleamine 2,3-dioxygenase” (GLAXOSMITHKLINE INTELLECTUAL PROPERTY DEVELOPMENT LIMITED, priority 2016, dated 2021)
